The values below come from patent US20160106727A1, “COMPOSITION AND METHOD FOR THE TREATMENT OF NEURODEGENERATION” (Wright State University, priority 2011, published 2016).

The assay relates to neurogenesis in the subventricular zone of the lateral brain ventricles. The assay can be described thus: Adult neurogenesis by doublecortin staining after two weeks of daily oral treatment. In kind it is in vivo, male Wistar rats. The conditions noted are these: for Fold increase in neurogenesis over vehicle control: anterior subventricular zone.
The mark [1] stands for this setting: doublecortin staining, two weeks daily oral.

Each structure is given as a SMILES string.

Description: Animals, more specifically, male Wistar rats were used to measure differences in neurogenesis in the subventricular zone of the lateral brain ventricles in response to the various drug treatments using doublecortin primary antibody to measure neurogenesis.
The male Wistar rats aged approximately one year old were used, wherein a doublecortin antibody was used to measure neurogenesis with a horseradish peroxidase labeled secondary antibody developed with 3,3′-Diaminobenzidine (DAB).
Wherein, the male Wistar rats were given voluntary oral drug treatments daily for a two week period.
For example, four groups of Wistar rats, n=6 in each, were given a vehicle control or one of three drug compositions which are voluntary orally administered for a period of two weeks, euthanized and the brain dissected for immunohistochemistry.
Specifically, all dissected animal brains were blocked and post fixed for 24 hours in 4% paraformaldehyde in PBS at 5° C. The brains were then put into 30% sucrose in PBS at 5° C. for at least 3 days and then cut on a cryostat into 50 micron coronal sections. The sections were collected into PBS, blocked for one hour with PBS containing 1% Tween and 3% secondary antibody host serum, then reacted with doublecortin primary antibody, 1:500 dilution in blocking solution. […] Free-floating sections were washed with 3 washes of PBS containing 0.1% Tween, then incubated in the dark with secondary antibodies, Cy3-labeled Donkey anti-rabbit IgG, FITC-labeled Donkey anti-sheep IgG; Jackson Immunology, at a 1:100 dilution in blocking solution for 2.5 hours at room temperature or a Vector ABC elite horseradish peroxidase DAB kit was used according to kit instructions, mounting the final washed sections on gel-subbed slides. Sections with fluorescent secondary antibodies were washed three times with PBS containing 0.1% Tween and then the sections were mounted on gel-subbed slides.
ANOVA (analysis of variance) was used for statistical analysis.

Regarding `CNCCC(Oc1ccc(C(F)(F)F)cc1)c1ccccc1` (stereo not shown) [fluoxetine], under setting [1], the “Fold increase in neurogenesis over vehicle control” value is given as “approximately 10 fold” and the “Neurogenesis compared to vehicle control (in words)” value is reported as “significant increase in neurogenesis”. Also, the “Fold increase in neurogenesis over vehicle control” value (doublecortin staining, two weeks daily oral, listed as Fluoxetine) stood at 10 fold. The “Area of doublecortin staining (mean)” value (subventricular zone of anterior lateral ventricles, daily voluntary oral treatment for two weeks, FIG. 1E) stood at 0.5727 mm^2.
